Test results: patent US20120122727A1, “IN VITRO METHOD FOR PREDICTING WHETHER A COMPOUND IS GENOTOXIC IN VIVO” (priority 2009, published 2012)

Experiments:
[1] = system: primary mouse hepatocytes; assay: Gene expression in primary mouse hepatocytes, GTX vs non-GTX (four-gene classifier, 24 h)
Description: Hepatocyte cells were incubated and exposed to a compound for 24 h before being harvested for RNA isolation.
The results of the gene expression analysis may then be fed into a statistical software package such as R, Splus, or Microsoft Excel. […] If none or only one of these criteria were met, no point was scored.
For each of the four genes mentioned in the table (1700007K13RIK, GAS2L3, SPC25, DDIT4L), a statistical comparison was made between the normalized expression data for these genes. […] If none or only one of these criteria were met, no point was scored.
For each compound, the sum of the scores for four genes is taken. If this score is 0, a compound can be believed not to be genotoxic. If this score is 1, 2, 3 or 4, a compound is genotoxic.
If none or only one of these criteria were met, no point was scored.

[2] = system: primary mouse hepatocytes; assay: Gene expression (Affymetrix Mouse Genome 430 2.0) in primary mouse hepatocytes, true vs false GTX, 24 h and 48 h; settings: log2, corrected for vehicle control
[3] = 24 h exposure, average of four replicates
[4] = log 2 ratio, 24 h exposure, concentration per Table 4

CN(C)N=O [DMN, Dimethylnitrosamine]
score 1700007K13RIK [1, 3]: 1
score DDIT4L [1, 3]: 0
score GAS2L3 [1, 3]: 0
score SPC25 [1, 3]: 0
Ratios of gene expression treated/untreated 1700007K13RIK [1, 4]: 2.141
Ratios of gene expression treated/untreated DDIT4L [1, 4]: 0.7662
Ratios of gene expression treated/untreated GAS2L3 [1, 4]: 0.2166
Ratios of gene expression treated/untreated SPC25 [1, 4]: 0.8368
Total score ([1]; sum of scores for four genes, 0 = not genotoxic, 1, 2, 3 or 4 = genotoxic): 1
Gene expression data AF000969 (Cadps2) ([2]; 24 h average): −1.039
Gene expression data AF022072 (Grb10) ([2]; 24 h average): −1.913
Gene expression data AF065917 (Lif) ([2]; 24 h average): 1.804
Gene expression data AF204959 (Cyp3a25 /// LOC622249) ([2]; 24 h average): −0.2993
Gene expression data AF297615 (Ggta1) ([2]; 24 h average): 3.2188
Gene expression data AI594683 (Dmn) ([2]; 24 h average): 3.164
Gene expression data AI596632 (Ptprg /// LOC632664) ([2]; 24 h average): −1.9
Gene expression data AI987929 (Ndrg1) ([2]; 24 h average): −0.9838
Gene expression data AK004419 (Fbxl17) ([2]; 24 h average): −1.22
Gene expression data AK005731 (1700007K13Rik) ([2]; 24 h average): 5.486
Gene expression data AK007766 (1810044A24Rik) ([2]; 24 h average): −0.8706
Gene expression data AK007854 (1810053B23Rik) ([2]; 24 h average): 2.173
Gene expression data AK009736 (Gpr137b /// LOC664862 /// LOC673335) ([2]; 24 h average): −0.8367
Gene expression data AK010447 (Smyd3) ([2]; 24 h average): −1.0358
Gene expression data AK014608 (4632434l11Rik) ([2]; 24 h average): 1.756
Gene expression data AK019979 (2610528E23Rik) ([2]; 24 h average): −1.324
Gene expression data AV095209 (Mthfd1l) ([2]; 24 h average): −1.007
Gene expression data AV141095 (1110033M05Rik) ([2]; 24 h average): −1.375
Gene expression data AV173571 (1700106N22Rik) ([2]; 24 h average): −1.0106
Gene expression data AV219418 (Ldhb) ([2]; 24 h average): 2.743
Gene expression data AV223474 (Zdhhc14) ([2]; 24 h average): −0.9067
Gene expression data AV298304 (Homez) ([2]; 24 h average): 1.8715
Gene expression data AV327248 (Zfp365 /// LOC674611) ([2]; 24 h average): 4.114
Gene expression data AV377066 (9130221J18Rik) ([2]; 24 h average): 0.9605
Gene expression data AW240761 (Tbc1d5) ([2]; 24 h average): −1.191
Gene expression data AW543460 (Pard3) ([2]; 24 h average): −1.4802
Gene expression data AW543723 ([2]; 24 h average): 1.95
Gene expression data AW986246 (Maoa) ([2]; 24 h average): −0.372
Gene expression data BB027848 (4732466D17Rik) ([2]; 24 h average): 1.126
Gene expression data BB043558 (9230114K14Rik) ([2]; 24 h average): 2.407
Gene expression data BB275142 (AW456874) ([2]; 24 h average): 1.902
Gene expression data BB308836 (Ppm1l) ([2]; 24 h average): −0.9881
Gene expression data BB318221 (Zdhhc14) ([2]; 24 h average): −1.041
Gene expression data BB463610 (4632434l11Rik) ([2]; 24 h average): 1.9965
Gene expression data BB526605 (Mipol1) ([2]; 24 h average): −1.5816
Gene expression data BB770528 (Rai2) ([2]; 24 h average): 2.8
Gene expression data BB821363 (Scfd2) ([2]; 24 h average): −1.143
Gene expression data BC004827 (Psat1) ([2]; 24 h average): −1.518
Gene expression data BC008626 (Icam1) ([2]; 24 h average): 2.035
Gene expression data BC010462 (BC010462) ([2]; 24 h average): 0.7519
Gene expression data BC012247 (Dcxr) ([2]; 24 h average): 1.6567
Gene expression data BC012260 (Psmf1) ([2]; 24 h average): 1.0548
Gene expression data BC015270 (Hist2h3c2) ([2]; 24 h average): 0.9816
Gene expression data BC016073 (Cdkal1) ([2]; 24 h average): −1.243
Gene expression data BC016265 (Ube2e2) ([2]; 24 h average): −1.287
Gene expression data BC019882 (Acaa1b) ([2]; 24 h average): 2.057
Gene expression data BC025501 (Aaas) ([2]; 24 h average): 1.6386
Gene expression data BC025837 (Sbk1) ([2]; 24 h average): 0.9087
Gene expression data BC025915 (Cova1) ([2]; 24 h average): −0.9502
Gene expression data BC026422 (Tgm1) ([2]; 24 h average): 2.22
Gene expression data BF719766 (Thyn1) ([2]; 24 h average): 1.824
Gene expression data BG065754 (Ccng1) ([2]; 24 h average): 0.9587
Gene expression data BG066903 (Kif16b) ([2]; 24 h average): −0.8682
Gene expression data BG069873 (Gnb1l) ([2]; 24 h average): 2.2987
Gene expression data BG070887 (Gtdc1) ([2]; 24 h average): −1.112
Gene expression data BG076151 (Ppm1d) ([2]; 24 h average): 1.946
Gene expression data BG261907 (Large) ([2]; 24 h average): −1.3871
Gene expression data BI651416 (Cdc42bpg) ([2]; 24 h average): 1.7218
Gene expression data BI660702 (Ell3) ([2]; 24 h average): 2.514
Gene expression data BM198879 (Ercc5) ([2]; 24 h average): 1.2634
Gene expression data BM230508 (A030007D23Rik) ([2]; 24 h average): 2.304
Gene expression data NM_007987 (Fas) ([2]; 24 h average): 2.421
Gene expression data NM_008522 (Ltf) ([2]; 24 h average): 3.616
Gene expression data NM_008576 (Abcc1) ([2]; 24 h average): −0.9295
Gene expression data NM_011176 (St14) ([2]; 24 h average): 1.574
Gene expression data NM_011316 (Saa4) ([2]; 24 h average): 2.1585
Gene expression data NM_012006 (Acot1) ([2]; 24 h average): 2.033
Gene expression data NM_013866 (Zfp385) ([2]; 24 h average): 2.361
Gene expression data NM_018770 (Igsf4a) ([2]; 24 h average): −0.8412
Gene expression data NM_021451 (Pmaip1) ([2]; 24 h average): 3.698
Gene expression data NM_025770 (Atg10) ([2]; 24 h average): −0.5113
Gene expression data NM_028803 (Gbe1) ([2]; 24 h average): −1.103
Gene expression data NM_030697 (Ankrd47) ([2]; 24 h average): 3.211
Gene expression data NM_053168 (Trim11) ([2]; 24 h average): 1.0583
Gene expression data NM_134188 (Acot2) ([2]; 24 h average): −0.5001
Gene expression data Y15910 (Diap2) ([2]; 24 h average): −1.636
Gene expression AA561726 average ([2]; 48 h): −0.3534
Gene expression AF000969 average ([2]; 48 h): −1.114
Gene expression AF022072 average ([2]; 48 h): −1.2797
Gene expression AF033112 average ([2]; 48 h): 1.817
Gene expression AF055573 average ([2]; 48 h): −1.913
Gene expression AF069954 average ([2]; 48 h): 1.631
